Experimental findings from ChEMBL document CHEMBL4396895, “Identification and Optimization of Novel Cathepsin C Inhibitors Derived from EGFR Inhibitors” (J Med Chem, 2019) are described below.

The assay has as its system Mus musculus. The experiment in a line: Protection against C57BL/6 mouse model of caerulein-induced acute pancreatitis assessed as reduction in CatC activity at 20 mg/kg, po pretreated twice daily for 6 days followed by caerulein-challenge at 1 hr interval for 8 hrs and measured 1 hr post-last caerulein-challenge.

Each structure is given as a SMILES string. Active and inactive are the calls of the source. The rule behind the calls is not given here.

`C=CC(=O)Nc1cc(Oc2nc(Nc3ccc(N4CCN(C)CC4)cc3OC)ccc2N2CCCCC2)ccc1C`: the outcome was Active.
